According to patent US10182500B2, “Curable composition for photoimprint, cured product, and method of producing film having pattern, optical component, circuit board, or electronic component using the composition” (CANON KABUSHIKI KAISHA, priority 2014, dated 2019):
Like-named read-outs stand apart in the source and are kept apart here. Each block holds one compound with its values, some of them ahead of it.

Key:
[1] = composition mainly composed of an acrylic monomer; cited from earlier work
[2] = Saturated solubility in liquid condensable gas (PFP), visual observation; conditions: for Saturated solubility: to PFP, liquid state at 5° C. and 1 atm
Experimental: (§1) An arbitrary amount of a photopolymerization initiator is weighed in a sample bottle at 23° C., and a condensable gas cooled to 5° C. to a liquid state is gradually added to the bottle until the photopolymerization initiator is completely dissolved. The sample bottle is capped and is left to stand in a refrigerator at 5° C. for 1 hour. The sample bottle is then subjected to visual observation whether the photopolymerization initiator is completely dissolved. The weight of the weighed photopolymerization initiator is divided by the sum of the weight of the photopolymerization initiator and the weight of the condensable gas in a liquid state, and the resulting quotient is expressed in percentage as the saturated solubility.
(§2) The sample bottle was capped and was left to stand in a refrigerator at 5° C. for 1 hour. The sample bottle was then visually observed.

[3] = 1 h
Experimental: as §1, §2

SMILES: FC(F)CC(F)(F)F [1,1,1,3,3-pentafluoropropane]
PFP dissolved in curable composition for photoimprint [1]: about 40 % by volume

SMILES: Cc1cc(C)c(C(=O)P(=O)(c2ccccc2)c2ccccc2)c(C)c1 [Formula (1), 2,4,6-trimethylbenzoyldiphenylphosphine oxide]
Saturated solubility [3]: <1.0 % by weight
saturated solubility [3]: less than 1 % by weight

Results, then the compound that gave them:

Saturated solubility [2]: <1.0 % by weight
SMILES: CC(C)c1ccc2sc3ccccc3c(=O)c2c1 [Formula (3), 2-isopropylthioxanthone]

Saturated solubility [2]: <1.0 % by weight
SMILES: CCN(CC)c1ccc(C(=O)c2ccc(N(CC)CC)cc2)cc1 [Formula (4), 4,4′-bis(diethylamino)benzophenone]

saturated solubility ([2]; at 5° C. in PFP being a liquid state at 5° C. and 1 atm): higher than 2.67 % by weight
SMILES: COC(OC)(C(=O)c1ccccc1)c1ccccc1 [Formula (6), benzyl dimethyl ketal]
